According to US20090215822A1, “Substituted Oxadiazole Derivatives as Positive Allosteric Modulators of Metabotropic Glutamate Receptors” (NIKEM RESEARCH SRL, priority 2005, published 2009):

Assays:
rat mGluR5 receptor = target: T1, rat mGluR5 receptor (Rattus norvegicus, UniProt P31424); test: mGluR5 assay on HEK-expressing rat mGluR5 (fluorescent cell based Ca2+ mobilization assay); conditions: HEK-293 cells stably expressing rat mGluR5; no co-addition of glutamate; mean of at least three independent experiments in duplicate; read-out: Ca++ Flux (mean EC50)
T1 construct: expressed in transfected cells
Experimental: Positive functional expression of HEK-293 cells stably expressing rat mGluR5 receptor was determined by measuring intracellular Ca^2+ changes using a Fluorometric Imaging Plate Reader (FLIPR, Molecular Devices, Sunnyvale, Calif.) in response to glutamate or selective known mGluR5 agonists and antagonists. Rat mGluR5 RT-PCR products in HEK-293 cells were sequenced and found 100% identical to rat mGluR5 Genbank reference sequence (NM_017012). HEK-293 cells expressing rmGluR5 were maintained in media containing DMEM, dialyzed Fetal Bovine Serum (10%), Glutamax™ (2 mM), Penicillin (100 units/ml), Streptomycin (100 μg/ml), Geneticin (100 μg/ml) and Hygromycin-B (40 μg/ml) at 37° C./5% CO2.
After one day of incubation, cells were washed with assay buffer containing: 142 mM NaCl, 6 mM KCl, 1 mM Mg2SO4, 1 mM CaCl2, 20 mM HEPES, 1 g/L glucose, 0.125 mM sulfinpyrazone, pH 7.4. After 60 min of loading with 4 uM Fluo-4 (TefLabs, Austin, Tex.), the cells were washed three times with 50 μl of PBS Buffer and resuspended in […] of assay Buffer. The plates were then transferred to a Fluorometric Imaging Plate Reader (FLIPR, Molecular Devices, Sunnyvale, Calif.) for the assessment of intracellular calcium flux. After monitoring the baseline fluorescence for 10 seconds, increasing concentrations of representative compound (from 0.01 to 60 μM) of the present invention diluted in Assay Buffer (15 μl of 4× dilutions) was added to the cell. The final DMSO concentration in the assay was 0.3%. In each experiment, fluorescence was then monitored as a function of time for 3 minutes and the data analyzed using Microsoft Excel and GraphPad Prism. Each data point was also measured two times.
Under these experimental conditions, this HEK-rat mGluR5 cell line is able to directly detect positive allosteric modulators without the need of co-addition of glutamate or mGluR5 agonist.
The concentration-response curves of representative compounds of the present invention were generated using the Prism GraphPad software (Graph Pad Inc, San Diego, USA). The curves were fitted to a four-parameter logistic equation:
(Y=Bottom+(Top-Bottom)/(1+10̂((Log EC50−X)*Hill Slope)
allowing determination of EC50 values.
The Table 1 below represents the mean EC50 obtained from at least three independent experiments of selected molecules performed in duplicate.

T1 sequence (P31424 21-1171 isoform P31424-2 limits assumed): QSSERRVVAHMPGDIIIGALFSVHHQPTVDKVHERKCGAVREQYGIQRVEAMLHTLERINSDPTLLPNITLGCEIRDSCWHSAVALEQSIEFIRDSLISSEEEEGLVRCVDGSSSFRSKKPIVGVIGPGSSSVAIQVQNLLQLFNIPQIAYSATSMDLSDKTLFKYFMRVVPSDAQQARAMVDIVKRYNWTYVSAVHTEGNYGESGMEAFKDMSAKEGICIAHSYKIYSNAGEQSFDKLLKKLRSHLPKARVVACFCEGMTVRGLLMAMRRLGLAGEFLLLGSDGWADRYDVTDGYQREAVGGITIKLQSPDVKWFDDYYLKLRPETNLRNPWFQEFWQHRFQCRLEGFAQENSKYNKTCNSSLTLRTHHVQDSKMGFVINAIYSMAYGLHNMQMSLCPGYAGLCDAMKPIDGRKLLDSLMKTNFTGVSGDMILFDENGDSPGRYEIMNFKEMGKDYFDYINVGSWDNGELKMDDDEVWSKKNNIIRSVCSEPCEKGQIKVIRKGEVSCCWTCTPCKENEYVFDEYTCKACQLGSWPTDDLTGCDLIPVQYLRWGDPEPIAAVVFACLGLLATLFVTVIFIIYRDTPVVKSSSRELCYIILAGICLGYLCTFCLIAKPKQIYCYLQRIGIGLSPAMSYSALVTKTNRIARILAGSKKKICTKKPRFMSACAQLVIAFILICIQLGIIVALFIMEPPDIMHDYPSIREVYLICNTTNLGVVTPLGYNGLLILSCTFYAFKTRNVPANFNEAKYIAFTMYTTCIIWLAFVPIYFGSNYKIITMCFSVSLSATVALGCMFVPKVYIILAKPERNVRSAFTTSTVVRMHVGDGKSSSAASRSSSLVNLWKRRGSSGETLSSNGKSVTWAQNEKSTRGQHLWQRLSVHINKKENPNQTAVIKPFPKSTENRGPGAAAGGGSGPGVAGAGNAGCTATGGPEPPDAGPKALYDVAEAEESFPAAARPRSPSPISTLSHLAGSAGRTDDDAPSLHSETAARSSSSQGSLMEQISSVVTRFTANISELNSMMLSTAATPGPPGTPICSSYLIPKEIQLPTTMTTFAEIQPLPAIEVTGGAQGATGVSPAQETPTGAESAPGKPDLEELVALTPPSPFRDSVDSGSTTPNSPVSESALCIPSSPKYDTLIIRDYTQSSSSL

| SMILES | EC50 (rat mGluR5 receptor) | melting point |
| --- | --- | --- |
| O=C(c1ccc(F)cc1)N1CCC[C@@H](c2noc(-c3ccc(F)cc3)n2)C1 [Example 2, (4-Fluoro-phenyl)-{(R)-3-[5-(4-fluoro-phenyl)-[1,2,4]oxadiazol-3-yl]-piperidin-1-yl}-methanone] | 1000 to 10000 nM | 120 to 123 °C |
| O=C(c1ccc(F)c(F)c1)N1CCCC(c2noc(-c3ccccc3F)n2)C1 (stereo not shown) [Example 3, (3,4-Difluoro-phenyl)-{3-[5-(2-fluoro-phenyl)-[1,2,4]oxadiazol-3-yl]-piperidin-1-yl}-methanone] | < 1000 nM | 80 to 83 °C |
| O=C(c1ccc(F)cc1F)N1CCCC(c2noc(-c3ccccc3F)n2)C1 (stereo not shown) [Example 4, (2,4-Difluoro-phenyl)-{3-[5-(2-fluoro-phenyl)-[1,2,4]oxadiazol-3-yl]-piperidin-1-yl}-methanone] | < 1000 nM | – |
| CNc1cc(F)ccc1C(=O)N1CCCC(c2noc(-c3ccccc3F)n2)C1 (stereo not shown) [Example 5, (4-Fluoro-2-methylamino-phenyl)-{3-[5-(2-fluoro-phenyl)-[1,2,4]oxadiazol-3-yl]-piperidin-1-yl}-methanone] | 1000 to 10000 nM | – |
| Cc1oncc1C(=O)N1CCCC(c2noc(-c3ccccc3F)n2)C1 (stereo not shown) [Example 7, {3-[5-(2-Fluoro-phenyl)-[1,2,4]oxadiazol-3-yl]-piperidin-1-yl}-(5-methyl-isoxazol-4-yl)-methanone] | < 1000 nM | – |
| O=C(c1ccc(F)cc1)N1CCCC(c2noc(-c3cscn3)n2)C1 (stereo not shown) [Example 8, (4-Fluoro-phenyl)-[3-(5-thiazol-4-yl-[1,2,4]oxadiazol-3-yl)-piperidin-1-yl]-methanone] | 1000 to 10000 nM | 128 °C |
| O=C(c1ccc(F)nc1)N1CCCC(c2noc(-c3ccc(F)cc3)n2)C1 (stereo not shown) [Example 9, {3-[5-(4-Fluoro-phenyl)-[1,2,4]oxadiazol-3-yl]-piperidin-1-yl}-(6-fluoro-pyridin-3-yl)-methanone] | < 1000 nM | 131 to 134 °C |
| O=C(c1ccc(F)c(F)c1)N1CCCC(c2noc(-c3ccc(F)cc3)n2)C1 (stereo not shown) [Example 10, (3,4-Difluoro-phenyl)-{3-[5-(4-fluoro-phenyl)-[1,2,4]oxadiazol-3-yl]-piperidin-1-yl}-methanone] | < 1000 nM | 149 to 152 °C |
| O=C(c1ccc(F)cc1)N1CCCC(c2noc(-c3ccccn3)n2)C1 (stereo not shown) [Example 11, (4-Fluoro-phenyl)-[3-(5-pyridin-2-yl-[1,2,4]oxadiazol-3-yl)-piperidin-1-yl]-methanone] | 1000 to 10000 nM | 126 to 129 °C |
| O=C(c1ccc(F)nc1)N1CCCC(c2noc(-c3ccccn3)n2)C1 (stereo not shown) [Example 12, (6-Fluoro-pyridin-3-yl)-[3-(5-pyridin-2-yl-[1,2,4]oxadiazol-3-yl)-piperidin-1-yl]-methanone] | 1000 to 10000 nM | 124 to 126 °C |
| O=C(c1ccc(F)cc1)N1CCCC(c2noc(-c3ccc(F)cc3F)n2)C1 (stereo not shown) [Example 13, {3-[5-(2,4-Difluoro-phenyl)-[1,2,4]oxadiazol-3-yl]-piperidin-1-yl}-(4-fluoro-phenyl)-methanone] | < 1000 nM | 88 °C |
| O=C(c1ccc(F)cc1)N1CCCC(c2noc(-c3ccncc3)n2)C1 (stereo not shown) [Example 14, (4-Fluoro-phenyl)-[3-(5-pyridin-4-yl-[1,2,4]oxadiazol-3-yl)-piperidin-1-yl]-methanone] | 1000 to 10000 nM | 149 to 151 °C |
| Cc1oncc1C(=O)N1CCCC(c2noc(-c3ccncc3)n2)C1 (stereo not shown) [Example 20, (5-Methyl-isoxazol-4-yl)-[3-(5-pyridin-4-yl-[1,2,4]oxadiazol-3-yl)-piperidin-1-yl]-methanone] | > 10000 nM | – |
| Cc1cc(F)ccc1C(=O)N1CCCC(c2noc(-c3ccncc3)n2)C1 (stereo not shown) [Example 22, (4-Fluoro-2-methyl-phenyl)-[3-(5-pyridin-4-yl-[1,2,4]oxadiazol-3-yl)-piperidin-1-yl]-methanone] | 1000 to 10000 nM | – |
| Cc1cc(F)ccc1C(=O)N1CCCC(c2noc(-c3ccccc3F)n2)C1 (stereo not shown) [Example 23, (4-Fluoro-2-methyl-phenyl)-{3-[5-(2-fluoro-phenyl)-[1,2,4]oxadiazol-3-yl]-piperidin-1-yl}-methanone] | 1000 to 10000 nM | – |
| O=C(c1ccc(F)cc1)N1CCCC(c2noc(-c3ccccc3)n2)C1 (stereo not shown) [Example 26, (4-Fluoro-phenyl)-[3-(5-phenyl-[1,2,4]oxadiazol-3-yl)-piperidin-1-yl]-methanone] | < 1000 nM | – |

| SMILES | EC50 (rat mGluR5 receptor) | melting point |
| --- | --- | --- |
| Cc1cc(F)ccc1C(=O)N1CCCC(c2noc(-c3ccccc3)n2)C1 (stereo not shown) [Example 34, (4-Fluoro-2-methyl-phenyl)-[3-(5-phenyl-[1,2,4]oxadiazol-3-yl)-piperidin-1-yl]-methanone] | 1000 to 10000 nM | – |
| O=C(c1ccc(F)cc1)N1CCCC(c2noc(C3CCCC3)n2)C1 (stereo not shown) [Example 35, (4-Fluoro-phenyl)-[3-(5-cyclopentyl-[1,2,4]oxadiazol-3-yl)-piperidin-1-yl]-methanone] | 1000 to 10000 nM | – |
| O=C(c1ccncc1F)N1CCC[C@H](c2noc(-c3ccc(F)cc3)n2)C1 [Example 41, {(S)-3-[5-(4-Fluoro-phenyl)-[1,2,4]oxadiazol-3-yl]-piperidin-1-yl}-(3-fluoro-pyridin-4-yl)-methanone] | < 1000 nM | – |
| O=C(c1cncc(F)c1)N1CCC[C@H](c2noc(-c3ccc(F)cc3)n2)C1 [Example 43, {(S)-3-[5-(4-Fluoro-phenyl)-[1,2,4]oxadiazol-3-yl]-piperidin-1-yl}-(5-fluoro-pyridin-3-yl)-methanone] | 1000 to 10000 nM | – |
| O=C(c1ccc(F)c(F)c1)N1CCC[C@H](c2noc(-c3ccc(F)cn3)n2)C1 [Example 45, (S)-(3,4-difluorophenyl)-{3-[5-(5-fluoropyridin-2-yl)-[1,2,4]oxadiazol-3-yl]-piperidin-1-yl}-methanone] | < 1000 nM | – |
| O=C(c1ccc(F)cc1)N1CCC[C@H](c2noc(-c3ccccn3)n2)C1 [Example 46, (S)-(4-fluorophenyl)-{3-[5-(pyridin-2-yl)-[1,2,4]oxadiazol-3-yl]-piperidin-1-yl}-methanone] | 1000 to 10000 nM | – |
| O=C(c1ccc(F)c(F)c1)N1CCC[C@H](c2noc(-c3ccccn3)n2)C1 [Example 47, (S)-(3,4-Difluorophenyl)-{3-[5-(pyridin-2-yl)-[1,2,4]oxadiazol-3-yl]-piperidin-1-yl}-methanone] | < 1000 nM | – |
| Cn1cnc(-c2nc([C@H]3CCCN(C(=O)c4ccc(F)cc4)C3)no2)c1 [Example 48, (4-Fluoro-phenyl)-{(S)-3-[5-(1-methyl-1H-imidazol-4-yl)-[1,2,4]oxadiazol-3-yl]-piperidin-1-yl}-methanone] | > 10000 nM | – |
| O=C(c1ccc(F)cc1)N1CCC[C@H](c2noc(-c3ccncc3F)n2)C1 [Example 49, (4-Fluoro-phenyl)-{(S)-3-[5-(3-fluoro-pyridin-4-yl)-[1,2,4]oxadiazol-3-yl]-piperidin-1-yl}-methanone] | 1000 to 10000 nM | – |
| O=C(c1ccc(F)c(F)c1)N1CCC[C@H](c2noc(-c3ccncc3F)n2)C1 [Example 50, (3,4-Difluoro-phenyl)-{(S)-3-[5-(3-fluoro-pyridin-4-yl)-[1,2,4]oxadiazol-3-yl]-piperidin-1-yl}-methanone] | 1000 to 10000 nM | – |
| O=C(c1c(F)cc(F)cc1F)N1CCC[C@H](c2noc(-c3ccccn3)n2)C1 [Example 51, [(S)-3-(5-Pyridin-2-yl-[1,2,4]oxadiazol-3-yl)-piperidin-1-yl]-(2,4,6-trifluoro-phenyl)-methanone] | < 1000 nM | – |
| O=C(c1ccc(F)c(F)c1F)N1CCC[C@H](c2noc(-c3ccccn3)n2)C1 [Example 52, [(S)-3-(5-Pyridin-2-yl-[1,2,4]oxadiazol-3-yl)-piperidin-1-yl]-(2,3,4-trifluoro-phenyl)-methanone] | < 1000 nM | – |
| O=C(c1c(F)cccc1F)N1CCC[C@H](c2noc(-c3ccccn3)n2)C1 [Example 53, (2,6-Difluoro-phenyl)-[(S)-3-(5-pyridin-2-yl-[1,2,4]oxadiazol-3-yl)-piperidin-1-yl]-methanone] | 1000 to 10000 nM | – |
| O=C(c1cc(F)ccc1F)N1CCC[C@H](c2noc(-c3ccccn3)n2)C1 [Example 54, (2,5-Difluoro-phenyl)-[(S)-3-(5-pyridin-2-yl-[1,2,4]oxadiazol-3-yl)-piperidin-1-yl]-methanone] | < 1000 nM | – |
| O=C(c1cccc(F)c1F)N1CCC[C@H](c2noc(-c3ccccn3)n2)C1 [Example 55, (2,3-Difluoro-phenyl)-[(S)-3-(5-pyridin-2-yl-[1,2,4]oxadiazol-3-yl)-piperidin-1-yl]-methanone] | 1000 to 10000 nM | – |
